Results published in US11566044B2, “Disulfide bond containing compounds and uses thereof” (THE UNIVERSITY OF QUEENSLAND, priority 2017, dated 2023).

Experiment: DTNB assay: stability of the S—S bond to 20% v/v piperidine in DMF (Fmoc-SPPS conditions)
Format: physicochemical
Conditions: 20% v/v piperidine in DMF for 6 h, absorbance at 308 and 412 nm
From the text: Prior to exploring further applications of the novel disulfide-bridged amino acid, the stability of its —S—S— bond to reagents/conditions employed during Fmoc-SPPS had to be established. For each deprotection step performed during peptide synthesis, a resin bound random amino acid is exposed to basic reagents with 20% v/v piperidine in DMF. —S—S— bond stability to these basic conditions was therefore trialled using a di-Boc protected disulfide bridged amino acid of the invention (compound 11), since the Boc protecting groups themselves would be stable to the basic conditions. […] Premature reduction of the disulfide-containing amino acid by piperidine would lead to the formation of free thiols that react with DTNB releasing NTB^2−, which can be readily identified spectrophotometrically at 412 nm.
DTNB (1 mg) was dissolved in 1 mL of methanol and a 1 mg/mL stock solution was prepared. A DTNB calibration curve was prepared by measurement of the absorbance (λmax=308 nm) over a range of concentrations (5, 10, 15, 20, and 25 μg/mL) in the presence of 20% v/v piperidine in DMF (100 μL). […]
Stability of the disulfide-bridged amino acid (compound 11) to basic conditions was assessed next, where it was first incubated with 20% v/v piperidine in DMF for up to 6 h and from that different concentrations of samples were prepared. […]

Base stability of the S—S bond (free thiols generated/detected): no free thiols were generated/detected
Compound: COC(=O)[C@H](CSSC(C)(C)CNC(=O)OC(C)(C)C)NC(=O)OC(C)(C)C [compound 11, Boc-Cys(S—SC(CH3)2CH2NH(Boc))—OCH3]
